Test results as given in patent US8450374B2, “Pan-antagonists for the androgen receptor and androgen receptor mutants associated with anti-androgen withdrawal” (priority 2009, dated 2013).
Where a chain is given by its changes, count along the chain named.

Tests used:
AR wt = molecular target: T1, AR wt (Homo sapiens, UniProt P10275); experiment: Competitive binding assay, [3H]DHT, transfected COS-7 cells, wild-type AR; parameters: expressed in transfected cells; host or cells: COS-7; conditions: 8 nM [3H]-DHT, read-out: Binding affinity (Ki), AR wt
T1 sequence (P10275 1-920): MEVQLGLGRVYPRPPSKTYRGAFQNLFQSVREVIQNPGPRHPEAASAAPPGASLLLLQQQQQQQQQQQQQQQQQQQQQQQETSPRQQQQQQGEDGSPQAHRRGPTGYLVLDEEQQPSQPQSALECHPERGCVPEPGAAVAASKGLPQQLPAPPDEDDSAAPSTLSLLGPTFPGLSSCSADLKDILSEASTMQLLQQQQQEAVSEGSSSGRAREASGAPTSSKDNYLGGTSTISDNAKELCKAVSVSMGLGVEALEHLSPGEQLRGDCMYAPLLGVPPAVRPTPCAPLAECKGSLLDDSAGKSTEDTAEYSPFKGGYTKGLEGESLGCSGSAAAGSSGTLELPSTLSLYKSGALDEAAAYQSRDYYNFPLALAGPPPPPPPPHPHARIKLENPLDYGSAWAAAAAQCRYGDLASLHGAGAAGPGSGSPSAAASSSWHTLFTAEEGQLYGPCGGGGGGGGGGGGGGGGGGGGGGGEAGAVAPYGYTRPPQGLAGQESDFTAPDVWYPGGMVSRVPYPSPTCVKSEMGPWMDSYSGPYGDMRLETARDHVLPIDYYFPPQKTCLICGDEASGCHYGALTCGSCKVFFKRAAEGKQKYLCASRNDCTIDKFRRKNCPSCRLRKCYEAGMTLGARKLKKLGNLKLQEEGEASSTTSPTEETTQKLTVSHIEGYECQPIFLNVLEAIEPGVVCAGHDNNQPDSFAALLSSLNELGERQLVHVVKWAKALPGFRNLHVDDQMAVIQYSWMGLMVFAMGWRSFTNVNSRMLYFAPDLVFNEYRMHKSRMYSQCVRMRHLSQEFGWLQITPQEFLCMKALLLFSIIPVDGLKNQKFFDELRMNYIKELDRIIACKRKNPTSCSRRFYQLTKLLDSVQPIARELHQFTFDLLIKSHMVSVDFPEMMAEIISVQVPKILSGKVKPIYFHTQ
Method: Twenty-four hours prior to transfection, COS-7 cells were seeded at a density of 70,000 cells per well in 24-well cell culture plates and grown in phenol red free Dulbecco's Modified Eagle Medium (DMEM) supplement with 10% cosmic calf serum (CCS). The cells were transfected with a prokaryotic expression vector encoding the wild-type androgen receptor or mutant androgen receptor using Lipofectamine (Invitrogen) following manufacturer's protocol. […] Cells were washed with PBS and harvested in 2% SDS, 10% glycerol, and 10 mM Tris, pH 6.8, and radioactivity determined by scintillation counting.

AR W741L = molecular target: T2, AR W741L (Homo sapiens, UniProt P10275, W742L); experiment: Transcription assay (ARE-luciferase reporter) in CV-1 cells, AR W741L; assay type: cell-based; conditions: for Antagonist efficacy (RLU value at IC50), AR W741L: in competition with 250 nM DHT
T2 construct: expressed in transfected cells; host or cells: CV-1
T2 sequence (P10275 1-920 W742L): T1 sequence (P10275 1-920) with W742L
Method: Twenty-four hours prior to transfection, CV-1 cells were seeded at a density of 45,000 cells per well in 24-well cell culture plates and grown in phenol red free Dulbecco's Modified Eagle Medium (DMEM) supplemented with 10% cosmic calf serum (COS). ARE-luciferase reporter and Renilla-Luc as the internal standard and a prokaryotic expression vector encoding the wild-type androgen receptor or mutant androgen receptor were transfected with Lipofectamine (Invitrogen) following manufacturer's protocol. Five hours after transfection, media was added containing the appropriate concentrations of ligands. The cells were allowed to incubate for 38 hours before harvesting by passive lysis buffer. Cell extracts were immediately assayed using the Dual Luciferase Assay (Promega) with a Perkin-Elmer Microbeta Luminometer. […] Dose-response data was analyzed by nonlinear regression analysis using GraphPad Prism.

| Compound | Ki (AR wt) [µM] | IC50 (AR W741L) [µM] | Antagonist efficacy (RLU value at IC50), AR W741L (AR W741L) |
| --- | --- | --- | --- |
| CN(C)CCCOc1cccc(Cc2ccccc2S(=O)(=O)CC(C)(O)C(=O)Nc2ccc(C#N)c(C(F)(F)F)c2)c1 (centres unmarked) [PAN22] | 2.3 | 3 ± 1.8 | (52% ± 4.9%) |
| CC(O)(CS(=O)(=O)c1ccccc1-c1ccccc1O)C(=O)Nc1ccc(C#N)c(C(F)(F)F)c1 (centres unmarked) [PAN41, N-(4-cyano-3-(trifluoromethyl)phenyl)-2-hydroxy-3-(2′-hydroxybiphenyl-2-ylsulfonyl)-2-methylpropanamide] | – | 5.8 ± 1.6 | (50% ± 1.0%) |
| CN(C)CCCOc1cccc(-c2ccccc2S(=O)(=O)CC(C)(O)C(=O)Nc2ccc(C#N)c(C(F)(F)F)c2)c1 (centres unmarked) [PAN52] | 3 | 12.2 ± 6.2 | (53% ± 5.2%) |
| CN(C)CCCOc1ccc(-c2ccccc2S(=O)(=O)CC(C)(O)C(=O)Nc2ccc(C#N)c(C(F)(F)F)c2)cc1 (centres unmarked) [PAN62] | 25 | 11 ± 11 | (62% ± 12%) |
